Test [1] is described as follows: Effective concentration that inhibits growth of Trypanosoma cruzi by 50% was reported. It counts as functional.
A further test relates to Vero. Nature of the test: Effective concentration to inhibit the proliferation of amastigote form of the parasite grown on mammalian (Vero) cells. It is filed as functional, cell-based, Chlorocebus sabaeus.
Another test has as its system Trypanosoma cruzi. Kind of test: Inhibition of the proliferation of epimastigote form of Trypanosoma cruzi was determined at 10 e-5 M. It counts as functional.

As usually defined, the EC50 is the concentration giving half of the maximal effect. The compound `Clc1ccccc1C(c1ccccc1)(c1ccccc1)n1ccnc1` [CLOTRIMAZOLE] yielded a 50% effective concentration (EC50) in test [1] of 3000 nM.

Consider “RuCl2(clotrimazole)2 [listing 1 of 2 here]”, for which the values for the concentration giving a half-maximal response (EC50) (in test [1]; in the test on Vero) were 100 nM and 5 nM, respectively.

The inhibition is the change of the read-out against control, counted positive when it falls. In the test with Trypanosoma cruzi, “RuCl2(clotrimazole)2 [listing 2 of 2 here]” yielded an inhibition of 90%.

These data come from ChEMBL document CHEMBL1126737, “Toward a novel metal-based chemotherapy against tropical diseases. 1. Enhancement of the efficacy of clotrimazole against Trypanosoma cruzi by complexation to ruthenium in RuCl2(clotrimazole)2” (J Med Chem, 1993).
